# Measured values: patent US9381173B2, “Isolated stereoisomeric forms of (S)2-N(3-O-(propan 2-Ol)-1-propyl-4-hydroxybenzene)-3-phenylpropylamide” (Novaremed Ltd., priority 2011, dated 2016)
# Assays:
# [1] = test system: tail flick model for nociceptive pain in mice; assay: Tail flick test for nociceptive pain; type: in vivo; conditions: for Mean latency time Post-treatment: 30 minutes after administration; for Mean latency time Pre-treatment: baseline a day before
# Procedure: In the present study the analgesic effect of the substantially pure enantiomers E1 and E2 was evaluated using the tail flick model for nociceptive pain in mice.
# The experiment was performed using male ICR strain 7 weeks old mice (25-27 g) (supplied by Harlan Israel, Ltd.)
# Response to pain was assessed using the tail flick method which utilizes an Ugo Basile tail flick instrument. The animal is placed and held gently on the Ugo Basile tail flick (TF) instrument surface with the tail straight back and above a photoelectric cell that served as heat source. The heat source and timer are turned on by a foot pedal press, and automatically switch off when the animal flicks its tail off the emitter. Latency is measured and analyzed as an analgesic effect.
# Description of the Study: The baseline tail flick was measured a day before the experiment started. On the day of the experiment, animal body weights were first measured followed by the IP administration of the test items (vehicle, morphine, NRD 13 S E1 and E2). 30 minutes after administration of the test items, the animals were subjected to the tail-flick testing. The tail-flick experiments were followed by blood sampling of all groups. The experiment was terminated after spinal cords and brains of all groups have been collected.
# Statistics and Data Evaluation: All parameters are represented as means and standard error of the mean (SEM). Data was analyzed using a two tailed, unpaired T-test to compare each treatment group to the Vehicle treated animals. A two-tailed, paired T-test was used to compare the pre-treatment and post-treatment of each treatment group. Probability values p<0.01 and p<0.05 are considered significant.
# BLK = BLK (Homo sapiens, UniProt P51451); assay: BLK mobility-shift kinase assay (Caliper LabChip 3000); type: biochemical; conditions: 5 concentrations, duplicate wells; listed as (S,S) enantiomer
# BLK, sequence (P51451 whole entry, species assumed): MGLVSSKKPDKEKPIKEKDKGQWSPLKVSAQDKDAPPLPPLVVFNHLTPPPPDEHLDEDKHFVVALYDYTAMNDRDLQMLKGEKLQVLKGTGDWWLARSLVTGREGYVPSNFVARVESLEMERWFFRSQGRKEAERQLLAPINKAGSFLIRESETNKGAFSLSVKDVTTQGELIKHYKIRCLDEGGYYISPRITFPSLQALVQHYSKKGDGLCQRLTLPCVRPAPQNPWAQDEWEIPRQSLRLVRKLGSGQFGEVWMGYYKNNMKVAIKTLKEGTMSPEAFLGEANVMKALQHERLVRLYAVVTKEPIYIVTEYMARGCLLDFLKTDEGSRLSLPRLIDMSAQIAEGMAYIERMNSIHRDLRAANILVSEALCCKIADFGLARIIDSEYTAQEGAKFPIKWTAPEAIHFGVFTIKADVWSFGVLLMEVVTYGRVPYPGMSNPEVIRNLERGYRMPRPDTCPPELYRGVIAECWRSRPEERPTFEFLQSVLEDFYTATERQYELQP
# Procedure: Each compound and concentration was tested in duplicate wells.
# Data points are the averages of duplicate wells. Error bars represent the mean±replicate % activity.
structure (smiles),measurement,setting,value
"CC(O)COCC(Cc1ccc(O)cc1)NC(=O)CCc1ccccc1 (single isomer, unassigned) [E1]",increase of latency time between pretreatment and post treatment,[1]; 3 mg/kg IP,not statistically significant
same,reducing pain when compared to the Vehicle,[1]; 3 mg/kg IP,not significantly active in reducing pain
same,Mean latency time Post-treatment,[1]; 3 mg/kg IP (group 3),9.53 ± 0.85 s
same,Mean latency time Pre-treatment,[1]; 3 mg/kg IP (group 3),7.62 ± 0.74 s
same,Mean latency time Post-treatment,"[1]; 10 mg/kg IP (groups 4, 6)",10.63 ± 0.64 s
same,Mean latency time Pre-treatment,"[1]; 10 mg/kg IP (groups 4, 6)",8.16 ± 0.39 s
same,Mean latency time Post-treatment,[1]; 20 mg/kg IP (group 5),10.65 ± 0.81 s
same,Mean latency time Pre-treatment,[1]; 20 mg/kg IP (group 5),7.58 ± 0.41 s
same,conclusion: pain relief activity,[1]; dose of 3 mg/kg,significant pain relief activity only in the calculated difference
same,conclusion: reducing pain compared to the Vehicle treated group,[1]; doses of 10 mg/kg and 20 mg/kg,active in reducing pain
same,pain relief activity by difference between pre- and post-treatment latency times vs. Vehicle,[1]; in particular at doses of 10 and 20 mg/kg (p<0.01),significant pain relief activity
same,pain analgesic in animal models of pain,"[1]; summary statement, listed as (S,S) enantiomer",effective
same,modulation of BLK tyrosine kinase activity,BLK,activated
